SMILES strings stand for the structures.

Turning to `*C/C(C)=C/C(C)S(*)(=O)=O` (repeat unit), the glass transition temperature came to 83.00 °C.

`*C1CCC(CC2CCC(N3C(=O)c4ccc(-c5ccc6c(c5)C(=O)N(*)C6=O)cc4C3=O)CC2)CC1` (repeat unit) returned a glass transition temperature of 242.00 °C.

Regarding `*CC1CC2CC1C1CCC(CN3C(=O)c4ccc(-c5ccc6c(c5)C(=O)N(*)C6=O)cc4C3=O)C21` (repeat unit), the glass transition temperature worked out at 230.00 °C.

For `*CC1CCCC(CN2C(=O)c3ccc(C(c4ccc5c(c4)C(=O)N(*)C5=O)(C(F)(F)F)C(F)(F)F)cc3C2=O)C1` (repeat unit), the glass transition temperature was determined as 222.00 °C.

`*CCCCCCCCCCCCN1C(=O)c2ccc(C(c3ccc4c(c3)C(=O)N(CCCCCCCCCCCCN3C(=O)c5ccc6c7ccc8c9c(ccc(c%10ccc(c5c6%10)C3=O)c97)C(=O)N(*)C8=O)C4=O)(C(F)(F)F)C(F)(F)F)cc2C1=O` (repeat unit) yielded a glass transition temperature of 170.00 °C.

Regarding `*CCCc1nc2cc(-c3ccc4[nH]c(*)nc4c3)ccc2[nH]1` (repeat unit), the glass transition temperature was 275.00 °C.

Turning to `*CCN(CCN1C(=O)c2ccc(C(c3ccc4c(c3)C(=O)N(*)C4=O)(C(F)(F)F)C(F)(F)F)cc2C1=O)c1ccc(/N=N/c2ccc(C3OCCO3)cc2)cc1` (repeat unit), the glass transition temperature stood at 178.00 °C.

Turning to `*CN1C(=O)c2ccc(C(c3ccc4c(c3)C(=O)N(Cc3nc5cc(-c6ccc7oc(*)nc7c6)ccc5o3)C4=O)(C(F)(F)F)C(F)(F)F)cc2C1=O` (repeat unit), the glass transition temperature came to 231.00 °C.

With `*CN1C(=O)c2ccc(C(c3ccc4c(c3)C(=O)N(Cc3nnc(-c5ccc(-c6nnc(*)o6)c(Oc6ccccc6)c5)o3)C4=O)(C(F)(F)F)C(F)(F)F)cc2C1=O` (repeat unit), the glass transition temperature was 208.00 °C.

Regarding `*CN1C(=O)c2ccc(C(c3ccc4c(c3)C(=O)N(Cc3nnc(-c5ccc(-c6nnc(*)o6)cc5)o3)C4=O)(C(F)(F)F)C(F)(F)F)cc2C1=O` (repeat unit), the glass transition temperature was 214.00 °C.

In turn, `*CN1C(=O)c2ccc(C(c3ccc4c(c3)C(=O)N(Cc3nnc(-c5ccc(Oc6ccc(-c7nnc(*)o7)cc6)cc5)o3)C4=O)(C(F)(F)F)C(F)(F)F)cc2C1=O` (repeat unit) yielded a glass transition temperature of 210.00 °C.

In turn, `*Oc1ccc(C(=O)c2cccc(C(=O)c3ccc(Oc4ccc(Cc5ccc(*)cc5)cc4)cc3)c2)cc1` (repeat unit) returned a glass transition temperature of 145.00 °C.

The compound `*Oc1ccc(C(C)(C)c2ccc(Oc3nc(*)nc(Cl)n3)cc2)cc1` (repeat unit) gave a glass transition temperature of 80.00 °C.

In turn, `*Oc1ccc(C(c2ccc(Oc3ccc(C(=O)c4cccc(C(=O)c5ccc(*)cc5)c4)cc3)cc2)(C(F)(F)F)C(F)(F)F)cc1` (repeat unit) yielded a glass transition temperature of 168.10 °C.

Take `*Oc1ccc(C2(c3ccc(Oc4ccc(C(=O)c5cccc(C(=O)c6ccc(*)cc6)c5)cc4)cc3)c3ccccc3-c3ccccc32)cc1` (repeat unit): the glass transition temperature worked out at 223.00 °C.

In turn, `*Oc1ccc(C2(c3ccc(Oc4ccc5c(=O)n6c7cc(-c8ccc9c(c8)nc8c%10ccc(*)c%11cccc(c(=O)n98)c%11%10)ccc7nc6c6cccc4c56)cc3)c3ccccc3C(=O)c3ccccc32)cc1` (repeat unit) gave a glass transition temperature of 428.00 °C.

In the case of `*Oc1ccc(S(=O)(=O)c2ccc(Oc3ccc(Sc4ccc(*)cc4)cc3)cc2)cc1` (repeat unit), the glass transition temperature came out at 175.00 °C.

The compound `*c1cc(Br)c(Oc2c(Br)cc(N3C(=O)c4ccc(S(=O)(=O)c5ccc6c(c5)C(=O)N(*)C6=O)cc4C3=O)cc2Br)c(Br)c1` (repeat unit) gave a glass transition temperature of 328.00 °C.

For the compound `*c1ccc(*)c(C(=O)c2ccccc2)c1` (repeat unit), the glass transition temperature worked out at 180.00 °C.

In the case of `*c1ccc(C(=O)c2ccc(-n3nc(-c4ccccc4)c4cc(Oc5ccc(C(C)(C)c6ccc(Oc7ccc8c(-c9ccccc9)nn(*)c(=O)c8c7)cc6)cc5)ccc4c3=O)cc2)cc1` (repeat unit), the glass transition temperature was 195.00 °C.

`*c1ccc(C2(c3ccc(N4C(=O)c5ccc(S(=O)(=O)c6ccc7c(c6)C(=O)N(*)C7=O)cc5C4=O)cc3)c3ccccc3-c3ccccc32)cc1` (repeat unit) gave a glass transition temperature of 392.00 °C.

`*c1ccc(Cc2ccc(N3C(=O)c4ccc([Si](C)(C)c5ccc([Si](C)(C)c6ccc7c(c6)C(=O)N(*)C7=O)cc5)cc4C3=O)cc2)cc1` (repeat unit) gave a glass transition temperature of 295.00 °C.

Regarding `*c1ccc(N2C(=O)c3ccc(Oc4ccc(C(C)(C)c5cccc(Oc6ccc7c(c6)C(=O)N(*)C7=O)c5)cc4)cc3C2=O)cc1` (repeat unit), the glass transition temperature came out at 268.00 °C.

Take `*c1ccc(Oc2ccc(C(=O)c3cccc(C(=O)c4ccc(Oc5ccc(-n6c(=O)c7cc8c(=O)n(*)c(=O)c8cc7c6=O)cc5)cc4)c3)cc2)cc1` (repeat unit): the glass transition temperature is 247.00 °C.

On to `*c1ccc(Oc2ccc(C(=O)c3cccc(C(=O)c4ccc(Oc5ccc(-n6c(=O)c7cc8c(=O)n(*)c(=O)c8cc7c6=O)cc5)cc4)n3)cc2)cc1` (repeat unit), for which the glass transition temperature was 324.60 °C.

The compound `*c1ccc(Oc2ccc(C(c3ccc(Oc4ccc(N5C(=O)c6ccc(Oc7ccc(C8(c9ccc(Oc%10ccc%11c(c%10)C(=O)N(*)C%11=O)cc9)CCC(C(C)(C)C)CC8)cc7)cc6C5=O)cc4)cc3)(C(F)(F)F)C(F)(F)F)cc2)cc1` (repeat unit) returned a glass transition temperature of 227.00 °C.

`*c1ccc(Oc2ccc(C3(c4ccc(Oc5ccc(N6C(=O)c7ccc(Oc8ccc(C9(c%10ccc(Oc%11ccc%12c(c%11)C(=O)N(*)C%12=O)cc%10)CCC(C(C)(C)C)CC9)cc8)cc7C6=O)cc5)cc4)C4CC5CC(C4)CC3C5)cc2)cc1` (repeat unit) had a glass transition temperature of 266.00 °C.

In the case of `*c1ccc(Oc2ccc(N3C(=O)c4cccc(Oc5ccc(C(C)(C)c6ccc(Oc7cccc8c7C(=O)N(*)C8=O)cc6)cc5)c4C3=O)cc2)cc1` (repeat unit), the glass transition temperature was 235.00 °C.

As to `*c1ccc(Oc2ccc(Sc3ccc(Oc4ccc(-c5nc(*)nc(-c6ccccc6)n5)cc4)cc3)cc2)cc1` (repeat unit), the glass transition temperature was determined as 211.00 °C.

In turn, `*c1ccc(Oc2ccc3ccc(Oc4ccc(-c5nc(*)nc(-c6ccccc6)n5)cc4)cc3c2)cc1` (repeat unit) came in with a glass transition temperature of 255.00 °C.

Consider `*c1ccc(Oc2ccc3ccc(Oc4ccc(N5C(=O)CC(=O)N(*)C5=S)cc4)cc3c2)cc1` (repeat unit), for which the glass transition temperature is 151.50 °C.

Compound `*c1ccc(Oc2cccc(Oc3ccc(N4C(=O)CC(=O)N(*)C4=S)cc3)c2)cc1` (repeat unit) came in with a glass transition temperature of 145.00 °C.

`*c1ccc(Oc2cccc(Oc3ccc(N4C(=O)c5ccc(Oc6ccc(C(C)(C)c7ccc(Oc8ccc9c(c8)C(=O)N(*)C9=O)cc7)cc6)cc5C4=O)cc3)c2C#N)cc1` (repeat unit): the glass transition temperature was 213.00 °C.

`*c1ccc(Oc2ccccc2Oc2ccc(-n3c(=O)c4cc5c(=O)n(*)c(=O)c5cc4c3=O)cc2)cc1` (repeat unit) gave a glass transition temperature of 313.00 °C.

`*c1ccc(S(*)(=O)=O)cc1` (repeat unit): the glass transition temperature was determined as 219.50 °C.

The compound `*c1ccc(S(=O)(=O)c2ccc(N3C(=O)c4ccc(Oc5ccc(C(C)(C)c6ccc(Oc7ccc8c(c7)C(=O)N(*)C8=O)cc6)cc5)cc4C3=O)cc2)cc1` (repeat unit) had a glass transition temperature of 267.00 °C.

Compound `*c1ccc(Sc2ccc(-c3nn(-c4ccc(S(=O)(=O)c5ccc(-n6nc(*)c7ccccc7c6=O)cc5)cc4)c(=O)c4ccccc34)cc2)cc1` (repeat unit) displayed a glass transition temperature of 279.00 °C.

Take `*c1ccc(Sc2cccc(Sc3ccc(S(*)=O)cc3)c2)cc1` (repeat unit): the glass transition temperature stood at 121.00 °C.

`*c1ccc([Si](CCCC)(CCCC)[Si](*)(CCCC)CCCC)s1` (repeat unit): the glass transition temperature was -53.00 °C.

In the case of `*c1ccc([Si](c2ccccc2)(c2ccccc2)c2ccc(-c3ccc4c(c3)c3cc(*)ccc3n4CCCCCC#N)cc2)cc1` (repeat unit), the glass transition temperature came to 165.00 °C.

In turn, `*c1ccc2[nH]c(*)nc2c1` (repeat unit) gave a glass transition temperature of 398.00 °C.

For `*c1ccc2c(c1)C(=O)N(C1CCC(N3C(=O)c4ccc(C(*)(C(F)(F)F)C(F)(F)F)cc4C3=O)CC1)C2=O` (repeat unit), the glass transition temperature came to 346.50 °C.

Compound `*c1ccc2c(c1)C(=O)N(c1cc(Br)c(Oc3c(Br)cc(N4C(=O)c5ccc(C(*)(C(F)(F)F)C(F)(F)F)cc5C4=O)cc3Br)c(Br)c1)C2=O` (repeat unit) gave a glass transition temperature of 303.00 °C.

`*c1ccc2c(c1)C(=O)N(c1cc(C(c3ccc(OC(=O)C45CC6CC(CC(C6)C4)C5)c(N4C(=O)c5ccc(C(*)(C(F)(F)F)C(F)(F)F)cc5C4=O)c3)(C(F)(F)F)C(F)(F)F)ccc1OC(=O)C13CC4CC(CC(C4)C1)C3)C2=O` (repeat unit): the glass transition temperature amounted to 305.00 °C.

`*c1ccc2c(c1)C(=O)N(c1ccc(-c3ccc(N4C(=O)c5ccc(C(*)(c6ccccc6)C(F)(F)F)cc5C4=O)cc3C(F)(F)F)c(C(F)(F)F)c1)C2=O` (repeat unit) yielded a glass transition temperature of 280.00 °C.

In turn, `*c1ccc2c(c1)C(=O)N(c1ccc(Oc3ccc(C(=O)c4cccc(C(=O)c5ccc(Oc6ccc(N7C(=O)c8ccc(C(*)(C(F)(F)F)C(F)(F)F)cc8C7=O)cc6)cc5)n4)cc3)cc1)C2=O` (repeat unit) showed a glass transition temperature of 226.90 °C.

As for `*c1cccc(Cc2cccc(N3C(=O)c4ccc([Si](C)(C)c5ccc([Si](C)(C)c6ccc7c(c6)C(=O)N(*)C7=O)cc5)cc4C3=O)c2)c1` (repeat unit), the glass transition temperature was 246.00 °C.

`*c1cccc(N2C(=O)c3ccc(Oc4ccc(C(C)(C)c5ccc(Oc6ccc7c(c6)C(=O)N(*)C7=O)cc5)cc4)cc3C2=O)c1` (repeat unit) returned a glass transition temperature of 217.50 °C.

In turn, `*c1cccc(P(=O)(c2ccccc2)c2cccc(N3C(=O)c4ccc(Oc5ccc(C(C)(C)c6ccc(Oc7ccc8c(c7)C(=O)N(*)C8=O)cc6)cc5)cc4C3=O)c2)c1` (repeat unit) had a glass transition temperature of 213.00 °C.

As for `*c1cccc(P(C)(=O)c2cccc(N3C(=O)c4ccc(Oc5ccc(C(C)(C)c6ccc(Oc7ccc8c(c7)C(=O)N(*)C8=O)cc6)cc5)cc4C3=O)c2)c1` (repeat unit), the glass transition temperature was 228.00 °C.

For the origin of these results see the PolyMetriX glass transition set.
